Experimental data taken from the NIST ThermoML archive (doi:10.1016/j.jct.2017.07.016).

Assay: xn = mol fraction of the nth substance listed
Conditions: 96.7 kPa, Liquid; for viscosity: Capillary tube (Ostwald / Ubbelohde) method; for mass density: Vibrating tube method

CCCCCCn1cc[n+](C)c1.[Cl-] [1-hexyl-3-methylimidazolium chloride] + c1ccncc1
Conditions | mass density [kg/m3] | viscosity [mPa·s]
303.15 K, x1 = 0.145 | 1000.09 | 3.442
303.15 K, x1 = 0.281 | 1013.46 | 12.9
303.15 K, x1 = 0.369 | 1019.3 | 27.09
303.15 K, x1 = 0.477 | 1025.04 | 89.47
303.15 K, x1 = 0.608 | 1029.07 | 266.74
303.15 K, x1 = 0.778 | 1033.09 | 1015.3
303.15 K, x1 = 0.877 | 1034.58 | 1617.5
303.15 K, x1 = 1 | 1036.07 | 5718.5
308.15 K, x1 = 0.145 | 995.92 | 3.081
308.15 K, x1 = 0.281 | 1009.71 | 11.03
308.15 K, x1 = 0.369 | 1015.8 | 22.93
308.15 K, x1 = 0.477 | 1021.74 | 68.74
308.15 K, x1 = 0.608 | 1025.91 | 192.89
308.15 K, x1 = 0.778 | 1030.09 | 686.42
308.15 K, x1 = 0.877 | 1031.66 | 1126
308.15 K, x1 = 1 | 1033.22 | 3430.8
313.15 K, x1 = 0.145 | 991.76 | 2.785
313.15 K, x1 = 0.281 | 1006 | 9.532
313.15 K, x1 = 0.369 | 1012.3 | 19.12
313.15 K, x1 = 0.477 | 1018.45 | 53.91
313.15 K, x1 = 0.608 | 1022.78 | 144.2
313.15 K, x1 = 0.778 | 1027.11 | 476.57
313.15 K, x1 = 0.877 | 1028.74 | 773.43
313.15 K, x1 = 1 | 1030.38 | 2146.1
318.15 K, x1 = 0.145 | 987.59 | 2.533
318.15 K, x1 = 0.281 | 1002.31 | 8.293
318.15 K, x1 = 0.369 | 1008.82 | 16.07
318.15 K, x1 = 0.477 | 1015.17 | 43.07
318.15 K, x1 = 0.608 | 1019.67 | 109.94
318.15 K, x1 = 0.778 | 1024.17 | 341.19
318.15 K, x1 = 0.877 | 1025.86 | 528.89
318.15 K, x1 = 1 | 1027.56 | 1390.4
323.15 K, x1 = 0.145 | 983.43 | 2.307
323.15 K, x1 = 0.281 | 998.61 | 7.283
323.15 K, x1 = 0.369 | 1005.33 | 13.71
323.15 K, x1 = 0.477 | 1011.9 | 35.05
323.15 K, x1 = 0.608 | 1016.57 | 85.19
323.15 K, x1 = 0.778 | 1021.24 | 249.82
323.15 K, x1 = 0.877 | 1022.99 | 376.53
323.15 K, x1 = 1 | 1024.75 | 928.1
328.15 K, x1 = 0.145 | – | 2.128
328.15 K, x1 = 0.281 | – | 6.442
328.15 K, x1 = 0.369 | – | 11.78
328.15 K, x1 = 0.477 | – | 28.97
328.15 K, x1 = 0.608 | – | 67.45
328.15 K, x1 = 0.778 | – | 185.55
328.15 K, x1 = 0.877 | – | 273.63
328.15 K, x1 = 1 | – | 638.79
